# Where a SMILES comes first, the peptide text is derived from it.
# How the values were obtained:
# RG2 gliomas = experiment: Regional permeability (Ki) by quantitative autoradiography in rats with implanted RG2 gliomas; assay type: in vivo, rat; settings: for effect on tumor permeability 20 minutes after stopping the intracarotid infusion (in words): [14C]-dextran
# Method: (§1) RG2 and C6 are cell lines derived from rat gliomas induced by ethylnitrosourea (17,18). The glioma cells were kept frozen until use, then thawed and maintained in a monolayer culture in F12 medium with 10% calf serum. The rats were anesthetized with intra-peritoneal ketamine (50 mg/kg). Glial tumors were implanted into the right hemisphere by intracerebral injections of 1×10^5 glioma cells in 5 μl F12 medium (1.2% methylcellulose) by a Hamilton syringe. The coordinates used were 5 mm lateral to the bregma, and 4.5 mm deep to the dural surface.
# (§2) Seven or eight days after tumor implantation, the rats were anesthetized with intra-peritoneal urethane (1 g/kg) and a polyethylene catheter was inserted retrograde through the external carotid artery to the common carotid artery bifurcation ipsilateral to the tumor. The external carotid artery and pterygopalatine artery were then ligated. Both femoral veins were cannulated for administration of drugs or tracers. One femoral artery was cannulated to monitor systemic blood pressure and the other femoral artery was cannulated to withdraw arterial blood. Body temperature was maintained at 37° C. and arterial blood gases, blood pressure, and hematocrit were monitored.
# The tumor-implanted rats were grouped by tracers and by tumor types. Bradykinin (Sigma Chemical Co., St. Louis, Mo.) or PBS (control) was infused into the right carotid artery at a rate of 53.3 μl/minute (10 μg/kg/minute) for 15 minutes. In regional permeability studies, 5 minutes after the start of the intracarotid infusion, […] of [^14 C]-AIB (MW 103, Dupon-New England Nuclear Co., Boston, Mass.) or [^14 C]-Dextran (MW 70,000, Dupon-New England Nuclear Co.) was injected as an intravenous bolus. A peristaltic withdrawal pump was used to withdraw femoral arterial blood at a constant rate of […] immediately after the injection of the tracer for the determination of serum radioactivity. Fifteen minutes after the start of intracarotid infusions, the animals were killed by decapitation and the brains were rapidly removed and frozen.
# Bradykinin, zaprinast or bradykinin mixed with zaprinast was infused into the right carotid artery at a rate of 53.3 μl/minute for 15 minute. The rate of infusion of bradykinin and zaprinast was 10 μg/kg/minute and 1.67 mg/kg/minute ([…]) respectively. Injection of tracer, withdrawing of arterial blood, and other protocols were in the same manner as described above.
# The duration of the effect of the intracarotid bradykinin with or without zaprinast infusion in RG2 glioma was examined at three different periods by changing the time of [^14 C]-dextran injection relative to intracarotid infusion of bradykinin with or without zaprinast.
# The frozen brains were mounted onto pedestals with M-1 embedding matrix (Lipshaw, Pittsburgh, Pa.) and 20 μm coronal sections were cut with a cryotome. The sections were thawmounted onto cover slips and autoradiograms were generated by co-exposing the sections on Kodak XAR-5 film with tissue calibrated [^14 C]-standards (Amersham, Arlington Heights, Ill.) for 2 weeks. The sequential section was stained with hematoxylin for the correlation of areas of histologically verified tumor areas with autoradiograms. The regional radioactivity was measured in the tumor, BST (areas within 2 mm distance from the border of the tumor), right cortex (ipsilateral cortex), left cortex (contralateral cortex), right white matter, left white matter, right basal ganglia, and left basal ganglia. Quantitative analysis of the regional radioactivity was performed using a computer (Power Macintosh 7100) and the software, Image 1.55 (NIH).
# For quantitative autoradiographic examination, the regional permeability in the brain and tumor tissues were expressed by the unidirectional transfer constant, Ki value (μl/g/minute) which was determined as described in References 21, 22, 23 and 24). […]
# C6 gliomas = experiment: Regional permeability (Ki) by quantitative autoradiography in rats with implanted C6 gliomas; assay type: in vivo, rat
# Method: as §1, §2
# The tumor-implanted rats were grouped by tracers and by tumor types. Bradykinin (Sigma Chemical Co., St. Louis, Mo.) or PBS (control) was infused into the right carotid artery at a rate of 53.3 μl/minute (10 μg/kg/minute) for 15 minutes. […] A peristaltic withdrawal pump was used to withdraw femoral arterial blood at a constant rate of […] immediately after the injection of the tracer for the determination of serum radioactivity. […]
# The frozen brains were mounted onto pedestals with M-1 embedding matrix (Lipshaw, Pittsburgh, Pa.) and 20 μm coronal sections were cut with a cryotome. […] The regional radioactivity was measured in the tumor, BST (areas within 2 mm distance from the border of the tumor), right cortex (ipsilateral cortex), left cortex (contralateral cortex), right white matter, left white matter, right basal ganglia, and left basal ganglia. Quantitative analysis of the regional radioactivity was performed using a computer (Power Macintosh 7100) and the software, Image 1.55 (NIH).
# For quantitative autoradiographic examination, the regional permeability in the brain and tumor tissues were expressed by the unidirectional transfer constant, Ki value (μl/g/minute) which was determined as described in References 21, 22, 23 and 24).
# For all tracers, statistical comparison of regional Ki values or blood volume between same regions with/without bradykinin or zaprinast were determined using analysis of variance (ANOVA) followed by non-parametric analysis of Mann-Whitney's U test. […]
# [1] = rat, in vivo
# Description: as §2
# [2] = Solubility of zaprinast in saline; assay type: physicochemical
# Method: The bradykinin/bradykinin analog and zaprinast are preferably infused in the form of a pharmaceutical solution having a […] phosphate buffered saline solution as the carrier. The concentration of bradykinin in the solution is 10-40 μg/ml with the preferred concentration of zaprinast being on the order of 1 to 10 mg/ml for carotid artery administration. For intravenous administration, the concentration of bradykinin/bradykinin analog is preferably between about 15 μg/ml to 50 mg/ml with the preferred concentration of zaprinast being on the order of 2 mg/ml to 15 mg/ml. Zaprinast is not soluble directly in saline. Accordingly, it is preferred that the pharmaceutical solution be prepared by dissolving zaprinast in 1 M sodium hydroxide to form a concentrated solution of approximately 100 to 500 mg/ml zaprinast. This concentrated solution is then dissolved into phosphate buffered saline (PBS) to the final desired concentration. Bradykinin or the bradykinin analog is then added to the solution to form the final pharmaceutical preparation. The relative concentrations within the pharmaceutical preparation are adjusted as set forth above to provide a solution which is suitable for either carotid artery infusion or intravenous administration.
# brain tumor capillaries = settings: intracarotid infusion; previous studies (6-9); cited from earlier work
Compound,"transport (Ki) of either tracer in other normal brain / non-tumor regions (in words) (RG2 gliomas; RG2-bearing rats, [14C]-dextran and [14C]-AIB)","Ki for AIB in BST (brain within 2 mm of the tumor) (RG2 gliomas; RG2, brain surrounding tumor, intracarotid infusion 15 minutes)","Ki for dextran in BST (in words) (RG2 gliomas; RG2, brain surrounding tumor, vs control)","effect on tumor permeability 20 minutes after stopping the intracarotid infusion (in words) (RG2 gliomas; RG2 tumor, time course study)","Ki in tumors for [14C]-dextran, fold higher than in controls (RG2 gliomas; RG2 tumor, bradykinin 10 μg/kg/minute intracarotid vs PBS control)","Ki in tumors for [14C]-AIB (MW 103) (RG2 gliomas; RG2 tumor, intracarotid infusion 15 minutes (bradykinin 10 μg/kg/minute, zaprinast 1.67 mg/kg/minute), mean±SD)","transfer constant, Ki, in tumors for [14C]-dextran (MW 70,000) (RG2 gliomas; RG2 tumor, intracarotid infusion 15 minutes (bradykinin 10 μg/kg/minute, zaprinast 1.67 mg/kg/minute), tracer i.v. 5 minutes after start, mean±SD)","[14C]-dextran uptake into the tumor (Ki) 10 minutes after stopping the intracarotid infusion (RG2 gliomas; RG2 tumor, time course study)","transport (Ki) for either tracer in non-tumor regions (in words) (C6 gliomas; C6-bearing rats, [14C]-dextran and [14C]-AIB)","Ki in tumors for [14C]-dextran, fold higher than in controls (C6 gliomas; C6 tumor, bradykinin intracarotid vs PBS control)",blood gas parameters or hemoglobin concentration (in words) [1],"bradykinin effect on tumor permeability (Ki) at 10 minutes after infusion (in words) (RG2 gliomas; RG2 tumor, FIG. 5 time course)","Ki values in RG2 tumors for both tracers (in words) (RG2 gliomas; zaprinast alone, intracarotid, [14C]-dextran and [14C]-AIB)",solubility in saline (in words) [2],"Ki in tumors for [14C]-AIB (C6 gliomas; C6 tumor, intracarotid infusion 15 minutes (bradykinin 10 μg/kg/minute, zaprinast 1.67 mg/kg/minute))","Ki values in C6 tumors for [14C]-dextran, increase with zaprinast alone (in words) (C6 gliomas; C6 tumor, zaprinast alone, intracarotid)",permeability in brain tumor capillaries vs normal brain capillaries (in words) (brain tumor capillaries)
NC(N)=NCCC[C@H](NC(=O)[C@H](Cc1ccccc1)NC(=O)[C@@H]1CCCN1C(=O)[C@H](CO)NC(=O)[C@H](Cc1ccccc1)NC(=O)CNC(=O)[C@@H]1CCCN1C(=O)[C@@H]1CCCN1C(=O)[C@@H](N)CCCN=C(N)N)C(=O)O [bradykinin] (H-RPPGFSPFR-OH),did not increase,5.31 ± 1.50 µL/g/min,not significantly increased,diminished,8.4 fold,26.46 ± 2.64 µL/g/min,14.33 ± 2.96 µL/g/min,3.89 ± 0.74 µL/g/min,did not increase,3.1 fold,,,,,,,
"CCCOc1ccccc1-c1nc2nn[nH]c2c(=O)[nH]1 [zaprinast, 2-(2-propyloxyphenyl)-8-azapurin-6-one]",,,,negligible,,,,,,,did not change,significantly prolonged,did not increase,not soluble,31.4 µL/g/min,not,
"CCCCC/C=C\C\C=C/C=C/C=C/[C@@H](SC[C@H](NC(=O)CC[C@H](N)C(=O)O)C(=O)NCC(=O)O)[C@@H](O)CCCC(=O)O [LTC4, leukotriene C4]",,,,,,,,,,,,,,,,,selectively increases
